Experimental data published in the supplement of paper PMC10307832.

How the values were obtained:
Test in all cases: relative viability (nuclei count vs DMSO), 5 days (fraction); higher = more cells survive
[1] = compound: COc1cc2nc(N3CCCN(C)CC3)nc(NC3CCN(Cc4ccccc4)CC3)c2cc1OC + CS(=O)(=O)N1CCN(Cc2cc3nc(-c4cccc5[nH]ncc45)nc(N4CCOCC4)c3s2)CC1 [Pictilisib] (partner 1 µM)
Outline: (§1)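 Values are medians from duplicate plates. Each reflects relative viability, defined as the nuclei count of treated wells over that of vehicle wells. Lung cancer cell lines in 1536-well plates were pin-tool dosed one day after seeding with one drug alone or with a fixed anchor-drug dose plus five library-drug doses (not always all listed) in √10 steps, then fixed, stained and imaged at 4× after 5 days.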

AZD6482 + Linsitinib = compound: Cc1cc([C@@H](C)Nc2ccccc2C(=O)O)c2nc(N3CCOCC3)cc(=O)n2c1 [AZD6482] + C[C@]1(O)C[C@@H](c2nc(-c3ccc4ccc(-c5ccccc5)nc4c3)c3c(N)nccn32)C1 [Linsitinib] (partner 1 µM)
Outline: as §1

AZD6482 + Vorinostat = compound: Cc1cc([C@@H](C)Nc2ccccc2C(=O)O)c2nc(N3CCOCC3)cc(=O)n2c1 [AZD6482] + O=C(CCCCCCC(=O)Nc1ccccc1)NO [Vorinostat] (partner 1 µM)
Outline: as §1

AZD6482 + Olaparib = compound: Cc1cc([C@@H](C)Nc2ccccc2C(=O)O)c2nc(N3CCOCC3)cc(=O)n2c1 [AZD6482] + O=C(c1cc(Cc2n[nH]c(=O)c3ccccc23)ccc1F)N1CCN(C(=O)C2CC2)CC1 [Olaparib] (partner 8 µM)
Outline: as §1

UMC-11
relative viability ([1]; first compound 0.2 µM): 0.84 | relative viability ([1]; first compound 0.6325 µM): 0.805 | relative viability ([1]; first compound 2 µM): 0.84 | relative viability ([1]; first compound 6.325 µM): 0.681 | relative viability (AZD6482 + Linsitinib; first compound 0.08 µM): 0.959 | relative viability (AZD6482 + Linsitinib; first compound 0.253 µM): 0.962 | relative viability (AZD6482 + Linsitinib; first compound 0.8 µM): 0.987 | relative viability (AZD6482 + Linsitinib; first compound 2.53 µM): 0.787 | relative viability (AZD6482 + Linsitinib; first compound 8 µM): 1 | relative viability (AZD6482 + Vorinostat; first compound 0.08 µM): 0.326 | relative viability (AZD6482 + Vorinostat; first compound 0.253 µM): 0.347 | relative viability (AZD6482 + Vorinostat; first compound 0.8 µM): 0.384 | relative viability (AZD6482 + Vorinostat; first compound 2.53 µM): 0.341 | relative viability (AZD6482 + Vorinostat; first compound 8 µM): 0.331 | relative viability (AZD6482 + Olaparib; first compound 0.08 µM): 0.738 | relative viability (AZD6482 + Olaparib; first compound 0.253 µM): 0.358 | relative viability (AZD6482 + Olaparib; first compound 0.8 µM): 0.357 | relative viability (AZD6482 + Olaparib; first compound 2.53 µM): 0.345 | relative viability (AZD6482 + Olaparib; first compound 8 µM): 0.338
